Measurements reported in the supplement of paper PMC7224384.

Tests used:
[1] = tested on: MDA-MB-453; assay: drug sensitivity score (DSS), in combination with BLU9931 (DSS (weighted AUC score)); higher = more sensitive (stronger viability decrease); extreme values may be limits of the assay; settings: BLU9931 100 nM; 72 h
Summary of the method: (§1)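 Each 384-well plate held compounds from the FIMM Oncology set, predispensed in singlicate at five 10-fold dilutions spanning a 10,000-fold range, and each well then received 2000 MDA-MB-453 cells in medium with or without an FGFR4 inhibitor at 100 nM final. Plates stayed at 37 °C, 5% CO2 for 72 h, after which cellular ATP was measured with CellTiterGlo 2.0. Readings were converted per plate into percent viability against control wells, and the drug sensitivity score was taken as a weighted area under a four-parameter logistic fit.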

[2] = tested on: MDA-MB-453; assay: drug sensitivity score (DSS), single agent (DSS (weighted AUC score)); higher = more sensitive (stronger viability decrease); extreme values may be limits of the assay; settings: BLU9931 0 nM; 72 h
Summary of the method: as §1

| SMILES | drug sensitivity score [1] | drug sensitivity score [2] |
| --- | --- | --- |
| CC(O)c1cc(C(=O)N[C@@H](C)Cn2ccc(-c3ccc(C#N)c(Cl)c3)n2)n[nH]1 (stereo not given in full) [ODM-201] | 0.3 | 1.1 |
| Cn1cc(C2=Nc3cc(NC(=O)C(N)C4CCCCC4)cc4c3C2=CNNC4=O)cn1 (stereo not given) | 9.9 | 14.4 |
| CC[C@H](CC#N)OC(=O)N[C@@H](C)c1cccc(NC(=O)Nc2ccc(-c3cnco3)c(OC)c2)c1 [AVN944] | 3.2 | 7.1 |
| COc1cc(NS(C)(=O)=O)ccc1Nc1c2ccccc2nc2ccccc12 [Amsacrine] | 2 | 1.2 |
| CCc1cncnc1N1CCN(Cc2nc3ccc(C(F)(F)F)cc3[nH]2)CC1 | 0.6 | 0.6 |
| CCn1c(C(=O)N(C2CC2)C2CC2)cc2c3c(ncn3C)c(Nc3cc(C)n(C)n3)nc21 | 0 | 0 |
| O=c1[nH]c(=O)n([C@H]2C[C@H](O)[C@@H](CO)O2)cc1F [Floxuridine] | 2 | 4.9 |
| Cc1c(Cn2c(C)nc3c(C(=O)O)cc(N4CCOCC4)cc32)cccc1C(F)(F)F | 0 | 0 |
| CCN1C(=O)CNc2ncc(-c3ccc(-c4nc[nH]n4)nc3C)nc21 [CC-115] | 12.5 | 12.2 |
| C[C@]12CC[C@@H]3c4ccc(O)cc4C[C@@H](CCCCCCCCC[S+]([O-])CCCC(F)(F)C(F)(F)F)[C@H]3[C@@H]1CC[C@@H]2O (stereo not given in full) [Fulvestrant] | 0 | 0 |
| CO[C@H]1CC[C@H](N2C(=O)CNc3ncc(-c4ccc(C(C)(C)O)nc4)nc32)CC1 [CC-223] | 6 | 6.1 |
| CON(C)C(=O)N1N=C(c2cc(F)ccc2F)S[C@@]1(CCCN)c1ccccc1 [Filanesib] | 15.3 | 16.7 |
| CC[C@@H]1C(=O)N(C)c2cnc(Nc3ccc(C(=O)N[C@H]4CC[C@H](N5CCN(CC6CC6)CC5)CC4)cc3OC)nc2N1C(C)C [Volasertib] | 7.8 | 10.5 |
| C=CC(=O)N1CC/C(=C\c2ccc(F)c([N+](=O)[O-])c2)C(=O)/C(=C/c2ccc(F)c([N+](=O)[O-])c2)C1 [VLX1570] | 19.3 | 21.1 |
| O=C(O)c1ccc(O)c2ncccc12 [IOX-1] | 3.6 | 1.6 |
| CC(=O)O[C@@]12CO[C@@H]1C[C@H](O)[C@@]1(C)C(=O)[C@H](O)C3=C(C)[C@@H](OC(=O)[C@H](O)[C@@H](NC(=O)OC(C)(C)C)c4ccccc4)C[C@@](O)([C@@H](OC(=O)c4ccccc4)[C@H]21)C3(C)C [Docetaxel] | 14.1 | 18.3 |
| CC[C@H](C)C(=O)O[C@H]1C[C@H](O)C=C2C=C[C@H](C)[C@H](CC[C@@H](O)C[C@@H](O)CC(=O)O)[C@H]21 [Pravastatin] | 0.3 | 0 |
| COc1cccc2c1C(=O)c1c(O)c3c(c(O)c1C2=O)C[C@@](O)(C(=O)CO)C[C@@H]3O[C@H]1C[C@H](N)[C@H](O)[C@H](C)O1 [Doxorubicin] | 5.1 | 6.8 |
| CC(=O)Nc1ccc(C(=O)Nc2ccccc2N)cc1 [Tacedinaline] | 0.4 | 1.3 |
| O[C@H](C[C@H]1c2c(F)cccc2-c2cncn21)[C@H]1CC[C@H](O)CC1 [GDC-0919] | 0 | 0 |
| C#Cc1cccc(Nc2ncnc3cc(OCCOC)c(OCCOC)cc23)c1 [Erlotinib] | 4.7 | 2.7 |
| Nc1nc(OCc2cc(Br)cs2)c2[nH]cnc2n1 [Lomeguatrib] | 0 | 0 |
| COC(=O)N[C@@H](C)CNc1nccc(-c2cn(C(C)C)nc2-c2cc(Cl)cc(NS(C)(=O)=O)c2F)n1 [Encorafenib] | 0 | 0.2 |
| CCN(CC)CCOc1ccc(C(=C(Cl)c2ccccc2)c2ccccc2)cc1 [Clomifene] | 4 | 5.8 |
| CCS(=O)(=O)N1CC(CC#N)(n2cc(-c3ncnc4[nH]ccc34)cn2)C1 [Baricitinib] | 0 | 0 |
| NS(=O)(=O)OC[C@@H]1C[C@@H](n2ccc3c(N[C@H]4CCc5ccccc54)ncnc32)C[C@@H]1O [Pevonedistat] | 3.3 | 7 |
| COc1ccc2[nH]cc(/C=C3\C(=O)Nc4ccc(NC(=O)CCN5CCCCC5)cc43)c2c1 | 4.8 | 6.1 |
| CN[C@@H]1C[C@H]2O[C@@](C)([C@@H]1OC)n1c3ccccc3c3c4c(c5c6ccccc6n2c5c31)C(=O)N[C@H]4O [UCN-01] | 16 | 18.2 |

| SMILES | drug sensitivity score [1] | drug sensitivity score [2] |
| --- | --- | --- |
| Cn1ncc(Cl)c1-c1cc(C(=O)N[C@H](CN)Cc2ccc(F)c(F)c2)oc1Cl [Uprosertib] | 11.2 | 7.6 |
| CN[C@@H](C)C(=O)N[C@H](C(=O)N1CCC[C@H]1c1nc(C(=O)c2ccc(F)cc2)cs1)C1CCCCC1 [NVP-LCL161] | 8.1 | 8 |
| CN[C@@H](C)C(=O)N[C@H]1CN(C(=O)CC(C)C)CC[C@H]2CC[C@@H](C(=O)NC(c3ccccc3)c3ccccc3)N2C1=O [AT-406] | 5.1 | 5.1 |
| CO[C@H]1C[C@@H]2CC[C@@H](C)[C@@](O)(O2)C(=O)C(=O)N2CCCC[C@H]2C(=O)O[C@H]([C@H](C)C[C@@H]2CC[C@@H](O)[C@H](OC)C2)CC(=O)[C@H](C)/C=C(\C)[C@@H](O)[C@@H](OC)C(=O)[C@H](C)C[C@H](C)/C=C/C=C/C=C/1C [Sirolimus] | 10.5 | 5.1 |
| COCC1(CO)C(=O)C2CCN1CC2 (stereo not given) [APR-246] | 0.4 | 0 |
| CC[C@]1(O)C[C@H]2CN(CCc3c([nH]c4ccccc34)[C@@](C(=O)OC)(c3cc4c(cc3OC)N(C=O)[C@H]3[C@@](O)(C(=O)OC)[C@H](OC(C)=O)[C@]5(CC)C=CCN6CC[C@]43[C@@H]65)C2)C1 [Vincristine] | 8.1 | 14.1 |
| COc1cc(OC)cc(N(CCNC(C)C)c2ccc3ncc(-c4cnn(C)c4)nc3c2)c1 [Erdafitinib] | 0.2 | 4.3 |
| CNCc1ccc(-c2[nH]c3cc(F)cc4c3c2CCNC4=O)cc1 [Rucaparib] | 0 | 0.6 |
| CCN(CC)CCCC(C)Nc1ccnc2cc(Cl)ccc12 (stereo not given) [Chloroquine] | 7 | 7.6 |
| C[C@H]1CN(C2COC2)CCN1c1ccc(Nc2cc(-c3ccnc(N4CCn5c(cc6c5CC(C)(C)C6)C4=O)c3CO)cn(C)c2=O)nc1 [GDC-0853] | 0 | 0 |
| CC[C@@](C)(Nc1ccnc(-c2c[nH]c3ncccc23)n1)C(=O)NCC(F)(F)F [Decernotinib] | 0 | 0 |
| CNC(=O)c1ccc(N2C(=S)N(c3cnc(C#N)c(C(F)(F)F)c3)C(=O)C23CCC3)cc1F [Apalutamide] | 0 | 0 |
| COc1cc(CCc2cc(NC(=O)c3ccc(N4CC(C)NC(C)C4)cc3)n[nH]2)cc(OC)c1 (stereo not given) [AZD4547] | 0 | 0.3 |
| CO[C@@]12[C@H](COC(N)=O)C3=C(C(=O)C(C)=C(N)C3=O)N1C[C@@H]1N[C@@H]12 [Mitomycin C] | 0 | 0 |
| Nc1nccc(-c2c(-c3ccc(F)cc3)ncn2C2CCCCC2)n1 | 0.6 | 1.1 |
| CN1CCN(C2CCN(C(=O)Nc3cc(Oc4ccc(NC(=O)C5(C(=O)Nc6ccc(F)cc6)CC5)c(F)c4)ccn3)CC2)CC1 [Golvatinib] | 0 | 0.3 |
| Nc1nc(N)c2nc(-c3cccc(O)c3)c(-c3cccc(O)c3)nc2n1 [TG100-115] | 5.9 | 5.1 |
| O=C1Cc2cc(C(=O)NC3C[C@H]4CC[C@@H](C3)N4S(=O)(=O)CC3CCN(CCCC(F)(F)F)CC3)c(Cl)cc2N1 (stereo not given in full) | 0 | 0 |
| Cc1nc(Nc2ncc(C(=O)Nc3c(C)cccc3Cl)s2)cc(N2CCN(CCO)CC2)n1 [Dasatinib] | 0 | 0 |
| Cc1cc(Nc2cc(N3CCN(C)CC3)nc(/C=C/c3ccccc3)n2)n[nH]1 [ENMD-2076] | 7.8 | 7.1 |
| Cn1cc(C2=C(c3cn(C4CCN(Cc5ccccn5)CC4)c4ccccc34)C(=O)NC2=O)c2ccccc21 [Enzastaurin] | 0 | 0 |
| CCN(CC)CCNC(=O)c1c(C)[nH]c(/C=C2\C(=O)Nc3ccc(-c4csc(-c5ccccc5)n4)cc32)c1C [Amcasertib] | 1 | 2.5 |
| NC(=O)NO [Hydroxyurea] | 1.6 | 2.3 |
| Cc1ccc(C(=O)Nc2ccc(CN3CCN(C)CC3)c(C(F)(F)F)c2)cc1C#Cc1cnc2cccnn12 [Ponatinib] | 1.7 | 5.9 |
| CN1CC[C@@H](NC(=O)Nc2ccc(C#N)cc2)C[C@@H]1c1nc2ccccc2[nH]1 [Glasdegib] | 0 | 0 |
| Cc1cccc(-c2[nH]c(CNc3ccccc3F)nc2-c2ccc3ncnn3c2)n1 [TEW-7197] | 1.8 | 5.2 |
| O=C(Nc1cccc(NC(=O)c2cccc(O)c2O)c1)c1cccc(O)c1O [MST-312] | 9.7 | 10 |
